Source: patent publication US20210308188A1, “CELL CLUSTER INCLUDING OLFACTORY NEURON OR PRECURSOR CELL THEREOF, AND METHOD FOR PRODUCING SAME” (SUMITOMO CHEMICAL COMPANY, LIMITED, priority 2018, published 2021)

Tested on: human iPS cells
Test: Study for first Wnt signaling pathway inhibitory substance in cell cluster production (Experiment 9)
Format: cell-based
Details: added from start of suspension culturing (IWP-2, IWP-3, IWP-4 2 μM; Wnt C-59 20 nM; KY02111 1 μM); BMP4 on day 2; day 28
Method: In Experiment 9, a study of cell cluster production efficiency was performed for the type of the first Wnt signaling pathway inhibitory substance, using human iPS cells. The experiments were performed in accordance with the procedures shown in the upper section of FIG. 22, and the same manipulations as in Experiment 3 were performed except for those specifically indicated. The suspension culturing of the human iPS cells subjected to maintenance culturing and step (a) was started in a medium supplemented with a first Wnt signaling pathway inhibitory substance, Y27632 (final concentration 20 μM) and SB-431542 (final concentration 1 μM).
As the first Wnt signaling pathway inhibitory substance, IWP-2 (manufactured by Tocris Biosciences, final concentration 2 μM), IWP-3 (manufactured by Cayman Chemicals, final concentration 2 μM), IWP-4 (manufactured by Cayman Chemicals, final concentration 2 μM), Wnt C-59 (manufactured by Cayman Chemicals, final concentration 20 nM), or KY02111 (manufactured by Cayman Chemicals, final concentration 1 μM) was used. As a control in which the first Wnt signaling pathway inhibitory substance was not added, DMSO was added.
On day 2 after the start of suspension culturing, a serum-free medium being free of Y27632 and containing each first Wnt signaling pathway inhibitory substance, SB-431542 and BMP4 (final concentration 1.5 nM) was added at 100 μl per well. In addition, on day 3 after the start of suspension culturing, the medium was half exchanged with a serum-free medium being free of Y27632 and BMP4 and containing SB-431542, K02288, FGF2, Heparin Sodium, and EGF. K02288, FGF2, Heparin Sodium, EGF were included to final concentrations in the well were 10 μM, 20 ng/ml, 10 μg/ml and 20 ng/ml, respectively. On days 6, 10, 13, 17, 21, and 24 after the start of suspension culturing, the medium was half exchanged with a serum-free medium being free of Y27632 and BMP4 and containing each first Wnt signaling pathway inhibitory substance, SB-431542, K02288, FGF2, Heparin Sodium, and EGF.
On day 28 after the start of suspension culturing, bright-field observation was performed with an inverted microscope (FIGS. 22A to 22F).
The cell clusters on day 28 after the start of suspension culturing were subjected to immunofluorescence staining in accordance with the same method as in Comparative Experiment 1. As primary antibodies, an anti-Six1 antibody and an anti-pan-cytokeratin antibody staining placode and non-neural epithelial tissues, and an anti-Sox2 antibody staining placode and neural cells, described in Table 1, were used. As fluorescently labeled secondary antibodies, an Alexa488-labeled donkey anti-rabbit antibody, a CF555-labeled donkey anti-goat antibody, and an Alexa647-labeled donkey anti-mouse antibody, described in Table 2, were used to perform multiple staining. Hoechst 33342 was used for contrast staining of the nucleus. The positive and negative determinations of the staining results were performed in the same manner as in Preliminary Experiment 1.
Under the conditions in which the first Wnt signaling pathway inhibitory substance was not added, no non-neural epithelial tissue was formed on the surface of the cell aggregate even when BMP4 was added on day 2 after the start of suspension culturing.

Row | Compound | formation of aggregates having non-neural epithelial tissues on the surface
1 | COc1ccccc1-n1c(SCC(=O)Nc2nc3ccc(C)cc3s2)nc2c(c1=O)SCC2 [IWP-4, N-(6-methyl-2-benzothiazolyl)-2-[[3,4,6,7-tetrahydro-3-(2-methoxyphenyl)-4-oxothieno[3,2-d]pyrimidin-2-yl]thio]-acetamide] | aggregates having non-neural epithelial tissues on the surface were formed
2 | Cc1ccc2nc(NC(=O)CSc3nc4c(c(=O)n3-c3ccccc3)SCC4)sc2c1 [IWP-2, N-(6-Methyl-2-benzothiazolyl)-2-[(3,4,6,7-tetrahydro-4-oxo-3-phenylthieno[3,2-d]pyrimidin-2-yl)thio]-acetamide] | aggregates having non-neural epithelial tissues on the surface were formed
3 | Cc1cc(-c2ccc(CC(=O)Nc3ccc(-c4cccnc4)cc3)cc2)ccn1 [Wnt C-59, 2-[4-(2-Methylpyridin-4-yl)phenyl]-N-[4-(pyridin-3-yl)phenyl]acetamide] | aggregates having non-neural epithelial tissues on the surface were formed
4 | Cc1ccc2nc(NC(=O)CSc3nc4c(c(=O)n3-c3ccc(F)cc3)SCC4)sc2c1 [IWP-3, 2-[[3-(4-fluorophenyl)-3,4,6,7-tetrahydro-4-oxothieno[3,2-d]pyrimidin-2-yl]thio]-N-(6-methyl-2-benzothiazolyl)-acetamide] | aggregates having non-neural epithelial tissues on the surface were formed
5 | COc1ccc(CCC(=O)Nc2nc3ccc(Cl)cc3s2)cc1OC [KY02111, N-(6-Chloro-2-benzothiazolyl)-3,4-dimethoxybenzenepropanamide] | aggregates having non-neural epithelial tissues on the surface were formed
